According to ChEMBL document CHEMBL4765391, “Design, synthesis, and Structure-Activity Relationships (SAR) of 3-vinylindazole derivatives as new selective tropomyosin receptor kinases (Trk) inhibitors” (Eur J Med Chem, 2020):

Key:
[1] = target: High affinity nerve growth factor receptor (Homo sapiens, UniProt P04629); assay: Inhibition of TrkA (unknown origin) using Tyr1 peptide as substrate in presence of ATP measured after 2 hrs by FRET-based Z-Lyte kinase assay
[2] = target: BDNF/NT-3 growth factors receptor (Homo sapiens, UniProt Q16620); assay: Inhibition of TrkB (unknown origin) using Tyr1 peptide as substrate in presence of ATP measured after 2 hrs by FRET-based Z-Lyte kinase assay
[3] = tested on: BaF3; assay: Antiproliferative activity against mouse BaF3 cells transfected with wild type ETV6-NTRK2 (unknown origin) assessed as cell viability measured after 72 hrs by Micro plate reader method; details: BaF3, 72 h
[4] = tested on: BaF3; assay: Antiproliferative activity against mouse BaF3 cells transfected with wild type CD74-NTRK1 (unknown origin) assessed as cell viability measured after 72 hrs by Micro plate reader method; details: BaF3, 72 h
[5] = tested on: BaF3; assay: Antiproliferative activity against mouse BaF3 cells transfected with wild type ETV6-NTRK3 (unknown origin) assessed as cell viability measured after 72 hrs by Micro plate reader method; details: BaF3, 72 h
[6] = tested on: BaF3; assay: Antiproliferative activity against mouse BaF3 cells transfected with wild type ETV6-NTRK3 (unknown origin) harbouring G623R mutation assessed as cell viability measured after 72 hrs by Micro plate reader method; format: functional, cell-based; details: BaF3, 72 h
[7] = tested on: BaF3; assay: Antiproliferative activity against mouse BaF3 cells transfected with wild type CD74-NTRK1 (unknown origin) harbouring G595R mutation assessed as cell viability measured after 72 hrs by Micro plate reader method; format: functional, cell-based; details: BaF3, 72 h
[8] = tested on: BaF3; assay: Antiproliferative activity against mouse BaF3 cells transfected with wild type ETV6-NTRK3 (unknown origin) harbouring G696A mutation assessed as cell viability measured after 72 hrs by Micro plate reader method; format: functional, cell-based; details: BaF3, 72 h
[9] = tested on: BaF3; assay: Antiproliferative activity against mouse BaF3 cells transfected with wild type ETV6-NTRK2 (unknown origin) harbouring G639R mutation assessed as cell viability measured after 72 hrs by Micro plate reader method; format: functional, cell-based; details: BaF3, 72 h
[10] = tested on: BaF3; assay: Antiproliferative activity against mouse BaF3 cells transfected with wild type CD74-NTRK1 (unknown origin) harbouring G667C mutation assessed as cell viability measured after 72 hrs by Micro plate reader method; format: functional, cell-based; details: BaF3, 72 h
[11] = tested on: BaF3; assay: Antiproliferative activity against mouse BaF3 cells assessed as cell viability measured after 72 hrs by Micro plate reader method; format: functional, cell-based; details: BaF3, 72 h

Chain of BDNF/NT-3 growth factors receptor (Q16620 whole entry): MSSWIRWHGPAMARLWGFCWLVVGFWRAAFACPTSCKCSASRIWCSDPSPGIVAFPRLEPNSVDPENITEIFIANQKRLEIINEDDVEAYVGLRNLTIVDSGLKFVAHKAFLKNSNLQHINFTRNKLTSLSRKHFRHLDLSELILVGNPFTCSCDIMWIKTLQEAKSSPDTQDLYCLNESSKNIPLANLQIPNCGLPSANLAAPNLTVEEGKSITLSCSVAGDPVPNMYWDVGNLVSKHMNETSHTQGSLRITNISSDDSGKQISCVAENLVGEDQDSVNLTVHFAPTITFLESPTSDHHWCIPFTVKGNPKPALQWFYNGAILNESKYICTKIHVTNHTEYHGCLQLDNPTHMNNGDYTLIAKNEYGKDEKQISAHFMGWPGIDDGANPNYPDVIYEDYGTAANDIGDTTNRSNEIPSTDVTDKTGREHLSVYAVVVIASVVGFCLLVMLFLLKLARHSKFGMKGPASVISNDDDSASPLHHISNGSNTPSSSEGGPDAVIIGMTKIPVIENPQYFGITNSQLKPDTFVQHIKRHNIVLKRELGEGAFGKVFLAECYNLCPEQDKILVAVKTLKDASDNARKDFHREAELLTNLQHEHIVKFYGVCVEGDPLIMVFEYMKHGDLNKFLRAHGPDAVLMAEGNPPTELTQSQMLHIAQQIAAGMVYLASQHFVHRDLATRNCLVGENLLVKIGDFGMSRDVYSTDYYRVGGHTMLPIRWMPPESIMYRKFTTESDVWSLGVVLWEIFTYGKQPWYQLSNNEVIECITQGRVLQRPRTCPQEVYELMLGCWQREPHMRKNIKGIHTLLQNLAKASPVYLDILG
Chain of High affinity nerve growth factor receptor (P04629 whole entry): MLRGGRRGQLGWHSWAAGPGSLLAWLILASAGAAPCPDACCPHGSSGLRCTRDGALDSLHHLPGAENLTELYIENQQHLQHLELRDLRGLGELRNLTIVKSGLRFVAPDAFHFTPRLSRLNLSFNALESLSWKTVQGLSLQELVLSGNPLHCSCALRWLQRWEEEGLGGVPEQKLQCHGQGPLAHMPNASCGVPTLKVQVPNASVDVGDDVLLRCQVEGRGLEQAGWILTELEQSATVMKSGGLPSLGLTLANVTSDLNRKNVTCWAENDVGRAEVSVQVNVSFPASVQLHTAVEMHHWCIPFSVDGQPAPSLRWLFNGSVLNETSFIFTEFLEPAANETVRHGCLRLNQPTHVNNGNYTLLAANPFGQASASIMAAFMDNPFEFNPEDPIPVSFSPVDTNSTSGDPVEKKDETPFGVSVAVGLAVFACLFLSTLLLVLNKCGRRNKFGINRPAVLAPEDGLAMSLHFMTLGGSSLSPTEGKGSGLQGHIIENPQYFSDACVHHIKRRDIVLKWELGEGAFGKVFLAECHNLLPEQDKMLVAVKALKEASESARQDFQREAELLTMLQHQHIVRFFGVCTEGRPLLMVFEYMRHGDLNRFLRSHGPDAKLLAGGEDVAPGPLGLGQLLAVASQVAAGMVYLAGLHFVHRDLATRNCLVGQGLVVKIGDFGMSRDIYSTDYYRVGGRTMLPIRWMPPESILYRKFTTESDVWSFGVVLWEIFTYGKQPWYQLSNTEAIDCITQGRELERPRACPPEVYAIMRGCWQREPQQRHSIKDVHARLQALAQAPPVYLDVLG

Compound | IC50 [1] [nM] | IC50 [2] [nM] | also measured
Fc1ccccc1CNc1ccc2[nH]nc(/C=C/c3ccccn3)c2c1 | 8.8 | 36.2 | 
Fc1cc(F)cc(CCc2ccc3[nH]nc(/C=C/c4ccccn4)c3c2)c1 | 3.7 | 8.5 | 
Fc1cc(F)cc(Oc2ccc3[nH]nc(/C=C/c4ccccn4)c3c2)c1 | 23.3 | 4 | 
CN(Cc1ccc2[nH]nc(/C=C/c3ccccn3)c2c1)c1cc(F)cc(F)c1 | 12 | 42.5 | 
Fc1cc(F)cc(COc2ccc3[nH]nc(/C=C/c4ccccn4)c3c2)c1 | 13.2 | 1.2 | IC50 [3]: 169 nM; IC50 [4]: 133 nM; IC50 [5]: 118 nM
Fc1cc(F)cc(OCc2ccc3[nH]nc(/C=C/c4ccccn4)c3c2)c1 | 20.9 | 7.2 | 
O=C(Nc1ccc2[nH]nc(/C=C/c3ccccn3)c2c1)c1cc(F)cc(F)c1 | 189 | 244 | 
O=C(Nc1cnn2ccc(N3CCC[C@@H]3c3cc(F)ccc3F)nc12)N1CC[C@H](O)C1 [LAROTRECTINIB] |  |  | IC50 [6]: 1200 nM; IC50 [3]: 40 nM; IC50 [7]: 539 nM; IC50 [8]: 54 nM; IC50 [9]: 2240 nM; IC50 [4]: 16 nM; IC50 [5]: 13 nM; IC50 [10]: 184 nM; IC50 [11]: > 10000 nM
CN(Cc1cc(F)cc(F)c1)c1ccc2[nH]nc(/C=C/c3ccccn3)c2c1 | 29 | 8 | 
CN(c1cc(F)cc(F)c1)c1ccc2[nH]nc(/C=C/c3ccccn3)c2c1 | 40.6 | 23.6 | 
Fc1cc(F)cc(-c2ccc3[nH]nc(/C=C/c4ccccn4)c3c2)c1 | 254 | 729 | 
C(=C\c1n[nH]c2ccc(NCc3ccccc3)cc12)/c1ccccn1 | 10.6 | 1.1 | 
Fc1cc(F)cc(C#Cc2ccc3[nH]nc(/C=C/c4ccccn4)c3c2)c1 | > 1000 | > 1000 | 
Fc1cc(F)cc(Sc2ccc3[nH]nc(/C=C/c4ccccn4)c3c2)c1 | 23.9 | 4.8 | 
O=C(Nc1cc(F)cc(F)c1)c1ccc2[nH]nc(/C=C/c3ccccn3)c2c1 | > 1000 | > 1000 | 

Continued, in another order:

IC50 [1] [nM] | IC50 [2] [nM] | Compound | also measured
3.1 | 26.7 | COc1cc(F)cc(CNc2ccc3[nH]nc(/C=C/c4ccccn4)c3c2)c1 | 
49.3 | 78.9 | Fc1ccc(CNc2ccc3[nH]nc(/C=C/c4ccccn4)c3c2)cc1 | 
10.4 | 3.5 | Fc1cc(F)cc(NCc2ccc3[nH]nc(/C=C/c4ccccn4)c3c2)c1 | 
5.7 | 4.9 | Fc1cccc(CNc2ccc3[nH]nc(/C=C/c4ccccn4)c3c2)c1 | 
76.3 | 245 | Fc1cc(CNc2ccc3[nH]nc(/C=C/c4ccccn4)c3c2)cc(C(F)(F)F)c1 | 
3.5 | 17.7 | N#Cc1cc(F)cc(CNc2ccc3[nH]nc(/C=C/c4ccccn4)c3c2)c1 | 
10.4 | 30.6 | Fc1cc(Br)cc(CNc2ccc3[nH]nc(/C=C/c4ccccn4)c3c2)c1 | 
2 | 15.4 | Fc1cc(Cl)cc(CNc2ccc3[nH]nc(/C=C/c4ccccn4)c3c2)c1 | 
10.4 | 50.1 | Cc1cc(F)cc(CNc2ccc3[nH]nc(/C=C/c4ccccn4)c3c2)c1 | 
 | 30.7 | Fc1cc(F)cc(Nc2ccc3[nH]nc(/C=C/c4ccccn4)c3c2)c1 | 
7.6 | 1.3 | Fc1cc(F)cc(Cc2ccc3[nH]nc(/C=C/c4ccccn4)c3c2)c1 | IC50 [3]: 161 nM; IC50 [4]: 133 nM; IC50 [5]: 125 nM
1.5 | 8.3 | Fc1cc(F)cc(CNc2ccc3[nH]nc(/C=C/c4ccccn4)c3c2)c1 | IC50 [3]: 34 nM; IC50 [4]: 35 nM; IC50 [5]: 14 nM; IC50 [11]: 489 nM
